Patent publication US9796713B2, “Tricyclic compounds as alpha-7 nicotinic acetylcholine receptor ligands” (BRISTOL-MYERS SQUIBB COMPANY, priority 2014, dated 2017)

Target: T1, α7-HI (Rattus norvegicus, UniProt Q05941)
T1 construct: expressed in transfected cells
Assay: FLIPR Ca2+-sensitive fluorescence assay, α7-HI (agonist activity) in HEK 293 cells
Assay type: cell-based
Settings: not given
Experimental: I) α7 Nicotinic Acetycholine Receptor Binding. Membranes were prepared for binding using HEK293 cells stably expressing the rat α7 nicotinic acetycholine receptor (rat α7 nAChR). Cells were homogenized at 4° C. in hypotonic lysis buffer consisting of 10 mM Tris (pH 7.4), 5 mM EDTA and protease inhibitors and centrifuged at 32000×g for 20 minutes. The pellet was washed once in membrane wash buffer consisting of 50 mM Tris (pH 7.4), 1 mM EDTA and protease inhibitors and centrifuged at 32000×g for 20 minutes. This pellet was then resuspended in assay buffer consisting 50 mM KH2PO4 (pH 7.4 at 25° C.), 1 mM EDTA, 0.005% Triton-X 100 and 0.1% (v/v) Sigma Protease Inhibitor Cocktail. Aliquots were then frozen in dry ice/ethanol and kept at −80° C. until the day of the assay. II) A Ca^2+-Sensitive, Fluorescence-Based Assay α-7 for Nicotinic Acetylcholine Receptor Channel Function in Mammalian Cells (“FLIPR”). Summary: Lead compounds are evaluated for agonist activity at α-7, α3β4, α4αβ2, and α1β1δ1ε sub-types of nicotinic ACh receptor ion channels expressed in mammalian HEK 293 cells. Agonist potency and efficacy values are determined from kinetic fluorescence Ca^2+ influx measurements made using a 384 well FLIPR (Fluorescence Image Plate Reader). […] In this assay, channel expressing HEK cell lines seeded in 384 well assay plates are loaded with a membrane permeant fluorescent Ca^2+ indicator dye, whose 510 nm green emission signal increases in response to elevation of intracellular Ca^2+ concentration. The basal fluorescence from the cells is monitored in real time, followed by the acute addition of test compounds.
Materials and Methods: Reagents: The acetomethoxy (AM) ester of the Ca^2+ indicator dye Fluo-4 was obtained from InVitrogen, (Carlsbad, Calif.). Acetylcholine and all buffer constituents were purchased from Sigma Chemical Company, St. Louis, Mo. G418 and Minimal Essential Medium were purchased from InVitrogen Life Technologies, Carlsbad, Calif. Fetal bovine serum was purchased from (InVitrogen, Carlsbad, Calif.).
Cell Culture: HEK-293 cells were grown in Minimal Essential Medium containing 10% (v/v) fetal bovine serum at 37° C. in a 5% CO2 incubator. HEK-293 cells stably expressing the ion channels were grown in the same medium with the addition of 500 μg/ml G418.
Ca^2+ flux assays of Ca^2+ channels expressed in HEK-293 cells: HEK-293 cells expressing the ion channels of interest were plated in 384 well, black-walled, clear-bottomed, poly-D-lysine coated plates at a density of ˜20,000 cells/well in 20 μl of Minimal Essential Medium containing 10% (v/v) fetal bovine serum and incubated for 2 days at 29° C. in a 5% CO2 incubator. Prior to assay, cells were loaded with the Fluo-4 AM ester. […] Dye loading was allowed to proceed for 90 minutes at room temperature at which time the dye loading solution was removed and replaced with 40 μl/well of Hanks buffer. Cells loaded with dye were loaded onto a FLIPR384 (Molecular Devices, Sunnyvale, Calif.). Fluo-4 dye was excited using the 488 nm line of an argon laser. Emission was filtered using a 540+/−30 nm bandpass filter. For evaluation of the effects of test compounds using the Ca^2+ flux assay, compounds to be tested were provided in assay ready plates. For nicotinic receptor ion channel expressing cells, the assay was initiated by the addition of 20 μl/well of Hanks buffer containing test compounds. For all assays, data were collected at 1 Hz for 10 seconds (baseline), at which time the compound containing stimulus buffers are added, and further measurements collected at 0.33 Hz for 3 min.
Data Analysis: The statistical robustness of the nicotinic receptor Ca^2+ flux assays is determined from blanks and totals wells. […] The raw fluorescence units data files generated on the FLIPR plate reader are automatically exported and processed by in-house data analysis tools.

T1 sequence (Q05941 23-502): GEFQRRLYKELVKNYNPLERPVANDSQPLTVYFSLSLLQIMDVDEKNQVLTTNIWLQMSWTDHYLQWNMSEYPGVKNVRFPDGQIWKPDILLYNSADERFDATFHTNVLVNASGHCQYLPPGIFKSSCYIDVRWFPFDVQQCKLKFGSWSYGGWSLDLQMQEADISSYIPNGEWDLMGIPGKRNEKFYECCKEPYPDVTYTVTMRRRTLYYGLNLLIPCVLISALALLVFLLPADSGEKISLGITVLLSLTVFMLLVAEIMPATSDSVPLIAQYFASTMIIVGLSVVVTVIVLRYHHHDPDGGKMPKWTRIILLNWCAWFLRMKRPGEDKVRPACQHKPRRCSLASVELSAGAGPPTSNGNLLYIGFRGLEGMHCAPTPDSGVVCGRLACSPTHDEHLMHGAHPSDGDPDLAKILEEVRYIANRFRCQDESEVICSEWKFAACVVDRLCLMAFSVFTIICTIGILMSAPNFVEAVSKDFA

Compound	EC50
O=C(c1n[nH]c2ccccc12)N1[C@@H]2C[C@H]3C[N@](CC[C@H]31)C2 [Example 34b, ((2R,3aS,5S,7aR)-hexahydro-2,5-methanopyrrolo[3,2-c]pyridin-1(6H)-yl)(1H-indazol-3-yl)methanone]	250 nM

Same assay, conditions: Table 4; Ca2+ flux, HEK-293 cells expressing the channel; read-out: FLIPR α7-HI (EC50)

Compound	EC50
O=C(c1n[nH]c2cc(F)ccc12)N1C2CC3CN(CCC31)C2 (stereo not drawn) [Example 42, ((2S*,3aR*,5R*,7aS*)-(6-fluoro-1H-indazol-3-yl)(hexahydro-2,5-methanopyrrolo[3,2-c]pyridin-1(6H)-yl)methanone]	54 nM
Cn1cc(C(=O)N2C3CC4CN(CCC42)C3)c2ccccc21 (stereo not drawn) [Example 39, ((2S*,3aR*,5R*,7aS*)-(hexahydro-2,5-methanopyrrolo[3,2-c]pyridin-1(6H)-yl)(1-methyl-1H-indol-3-yl)methanone]	> 100000 nM
O=C(c1cc(-c2ccccc2)n[nH]1)N1C2CC3CN(CCC31)C2 (stereo not drawn) [Example 38, ((2S*,3aR*,5R*,7aS*)-(hexahydro-2,5-methanopyrrolo[3,2-c]pyridin-1(6H)-yl)(3-phenyl-1H-pyrazol-5-yl)methanone]	> 100000 nM
O=C(c1n[nH]c2ccccc12)N1C2CC3CN(CCC31)C2 (stereo not drawn) [Example 34, ((2S*,3aR*,5R*,7aS*)-hexahydro-2,5-methanopyrrolo[3,2-c]pyridin-1(6H)-yl)(1H-indazol-3-yl)methanone]	29 nM
COc1ccc2[nH]nc(C(=O)N3C4CC5CN(CCC53)C4)c2c1 (stereo not drawn) [Example 41, ((2S*,3aR*,5R*,7aS*)-(5-methoxy-1H-indazol-3-yl)(hexahydro-2,5-methanopyrrolo[3,2-c]pyridin-1(6H)-yl)methanone]	> 100000 nM
O=C(c1n[nH]c2ccccc12)N1[C@H]2C[C@@H]3C[N@@](CC[C@@H]31)C2 (single isomer, unassigned) [Example 34a]	7.5 nM
O=C(c1n[nH]c2ccc(Br)cc12)N1C2CC3CN(CCC31)C2 (stereo not drawn) [Example 44, ((2S*,3aR*,5R*,7aS*)-(5-bromo-1H-indazol-3-yl)(hexahydro-2,5-methanopyrrolo[3,2-c]pyridin-1(6H)-yl)methanone]	> 100000 nM
Cc1ccc2c(C(=O)N3[C@H]4C[C@@H]5C[N@@](CC[C@@H]53)C4)n[nH]c2c1 [Example 49a, (2S,3aR,5R,7aS)-(6-methyl-1H-indazol-3-yl)(hexahydro-2,5-methanopyrrolo[3,2-c]pyridin-1(6H)-yl)methanone]	3.1 nM
